Assay results reported in US5239084A, “Substituted aminoalkyl biphenyl compounds” (Hoffmann-La Roche Inc., priority 1990, dated 1993).
In brackets after ≈: the same amount, converted by molar mass. Several values for one entry are separate records, joined by “and”; a condition that tells them apart may be missing. Identical values can stand only once. Counter-ions that a name gives are not always drawn. Like-named read-outs stand apart in the source and are kept apart here.

Assays:
[1] = biological target: T1, 2,3-epoxysqualene-lanosterol cyclase (Candida albicans, UniProt Q04782); test: inhibition of 2,3-epoxysqualene-lanosterol cyclase from Candida albicans (cell-free extract, 14C-squalene epoxide); format: biochemical
T1 construct: there was obtained a cell-free extract (CFE) as the supernatant; endogenous in cells; host or cells: Candida albicans culture, protoplasts ruptured, cell-free extract (10000 g supernatant)

[2] = acute toxicity, single oral administration to mice; conditions: mouse, in vivo
Description: The IC50 values were determined graphically and were given in μg of test substance per mL. Table I hereinafter contains IC50 values determined in the above test for representative members of the class of compound defined by formula I as well as concerning the acute toxicity in the case of single oral administration to mice (LD50 in mg/kg).

C. albicans H12 = test: agar dilution method, C. albicans H12; format: cell-based, Candida albicans; conditions: for MIC: Candida albicans, H12, 48 h
C. albicans H29 = test: agar dilution method, C. albicans H29; format: cell-based, Candida albicans; conditions: for MIC: Candida albicans, H29, 48 h, alone, 37° C., 2 days; for FIC: synergistic when FIC <0.5
C. albicans 3153 = test: agar dilution method, C. albicans 3153; format: cell-based, Candida albicans; conditions: for MIC: Candida albicans, 3153, 48 h, alone, 37° C., 2 days
C. albicans B5 = test: agar dilution method, C. albicans B5; format: cell-based, Candida albicans; conditions: for MIC: Candida albicans, B5, 48 h
C. albicans B4 = test: agar dilution method, C. albicans B4; format: cell-based, Candida albicans; conditions: for MIC: Candida albicans, B4, 48 h
C. albicans 3152 = test: agar dilution method, C. albicans 3152; format: cell-based, Candida albicans; conditions: for MIC: Candida albicans, 48 h, alone, 37° C., 2 days
Candida albicans = test: agar dilution method, synergism with sterol biosynthesis inhibitors; format: cell-based; conditions: in combination with ketoconazole or terbinafine; synergistic when FIC <0.5
[3] = in combination with ketoconazole, hydrochloride
[4] = in combination with ketoconazole, synergistic when FIC <0.5, hydrochloride
[5] = in combination with terbinafine
[6] = in combination with terbinafine, synergistic when FIC <0.5
[7] = in combination with ketoconazole
[8] = in combination with ketoconazole, synergistic when FIC <0.5
[9] = in combination with compound 20
[10] = in combination with compound 14

T1 sequence (Q04782 whole entry): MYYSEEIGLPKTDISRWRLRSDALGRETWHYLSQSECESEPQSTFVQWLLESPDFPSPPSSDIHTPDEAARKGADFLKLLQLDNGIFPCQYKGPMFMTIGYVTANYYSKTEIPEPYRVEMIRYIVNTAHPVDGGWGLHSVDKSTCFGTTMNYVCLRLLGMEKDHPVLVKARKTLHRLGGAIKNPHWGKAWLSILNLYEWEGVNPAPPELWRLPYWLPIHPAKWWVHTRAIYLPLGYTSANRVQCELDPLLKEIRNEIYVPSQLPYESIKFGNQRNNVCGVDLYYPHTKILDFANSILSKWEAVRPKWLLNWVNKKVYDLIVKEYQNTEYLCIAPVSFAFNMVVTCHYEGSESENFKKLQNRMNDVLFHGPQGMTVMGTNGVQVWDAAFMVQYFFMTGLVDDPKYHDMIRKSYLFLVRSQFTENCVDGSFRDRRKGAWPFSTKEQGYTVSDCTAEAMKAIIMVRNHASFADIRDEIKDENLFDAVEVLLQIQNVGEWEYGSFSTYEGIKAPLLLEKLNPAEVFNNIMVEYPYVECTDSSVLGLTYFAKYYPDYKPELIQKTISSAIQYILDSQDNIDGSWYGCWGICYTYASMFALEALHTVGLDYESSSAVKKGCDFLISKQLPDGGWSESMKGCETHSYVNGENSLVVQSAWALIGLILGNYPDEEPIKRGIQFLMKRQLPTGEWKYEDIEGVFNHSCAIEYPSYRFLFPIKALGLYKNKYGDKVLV

| SMILES | IC50 [1] | MIC (C. albicans H12; alone, 37° C., 2 days) | FIC (C. albicans H12; [4]) | MIC of compound in combination (C. albicans H12; [5]) | FIC (C. albicans H12; [6]) | MIC (C. albicans H29) | MIC of compound in combination (C. albicans H29; [5]) | FIC (C. albicans H29; [5]) | MIC (C. albicans 3153) | MIC of compound in combination (C. albicans 3153; [5]) | MIC (C. albicans B5; alone, 37° C., 2 days) | MIC of compound in combination (C. albicans B5; [5]) | FIC (C. albicans B5; [6]) | MIC (C. albicans B4; alone, 37° C., 2 days) | MIC of compound in combination (C. albicans B4; [5]) | FIC (C. albicans B4; [6]) | MIC (C. albicans 3152) | synergistic activity (Candida albicans) | MIC of sterol biosynthesis inhibitor in combination (C. albicans H12; [9]) | MIC of sterol biosynthesis inhibitor in combination (C. albicans H29; [10]) | also measured |
| --- | --- | --- | --- | --- | --- | --- | --- | --- | --- | --- | --- | --- | --- | --- | --- | --- | --- | --- | --- | --- | --- |
| C=CCN(C)Cc1ccc(-c2ccc(C(=O)c3ccccc3)cc2)cc1 [Compound 14, 4'-[(allylmethylamino)methyl-4-biphenylylphenyl ketone hydrochloride] | 52.7 nM | 1 µg/mL | 0.133 and 0.125 | 0.5 µg/mL | 0.516 | 1 µg/mL | 0.25 µg/mL | 0.375 | 1 µg/mL | 0.25 µg/mL | 1 µg/mL | 0.25 µg/mL | 0.375 | 2 µg/mL | 1 µg/mL | 0.531 | 1 µg/mL | confirm the synergistic activity |  |  | LD50 [2]: > 4000 mg/kg; MIC of compound in combination (C. albicans H12; [3]): 0.12 µg/mL and 0.06 µg/mL; MIC of compound in combination (C. albicans H29; [3]): 0.06 µg/mL and 0.12 µg/mL; FIC (C. albicans 3153; in combination with terbinafine, synergistic when FIC <0.5, hydrochloride): 0.281 and 0.561; MIC of compound in combination (C. albicans B5; [3]): 0.06 µg/mL and 0.12 µg/mL; FIC (C. albicans B5; [4]): 0.125 and 0.25; MIC of compound in combination (C. albicans B4; [3]): 0.12 µg/mL and 0.06 µg/mL; FIC (C. albicans B4; [4]): 0.078 and 0.040; MIC of compound in combination (C. albicans 3152; [3]): 0.06 µg/mL and 0.12 µg/mL; FIC (C. albicans 3152; [4]): 0.187 and 0.156 |
| C=CCN(C)Cc1ccc(-c2ccc(C(=O)c3ccc(Br)cc3)cc2)cc1 [Compound 20, 4'-[[(Allylmethylamino)methyl]-4-biphenylylp-bromophenyl ketone hydrochloride] |  | 2 µg/mL | 0.156 and 0.078 | 0.25 µg/mL | 0.25 | 1 µg/mL | 0.25 µg/mL | 0.50 | 1 µg/mL | 0.12 µg/mL | 1 µg/mL | 0.25 µg/mL | 0.5 | 2 µg/mL | 0.50 µg/mL | 0.266 |  | confirm the synergistic activity |  |  | IC50 ([1]; cell-free extract, pH 6.9, 30° C., 1 hour, read-out: IC50 (converted)): 30.9 nM; MIC of compound in combination (C. albicans H29; [7]): 0.25 µg/mL; FIC (C. albicans H29; [7]): 0.375; MIC of compound in combination (C. albicans 3153; [7]): 0.12 µg/mL; FIC (C. albicans 3153; [8]): 0.156; FIC (C. albicans 3153; [6]): 0.375; MIC of compound in combination (C. albicans B5; [7]): 0.25 µg/mL; FIC (C. albicans B5; [8]): 0.25; MIC of compound in combination (C. albicans B4; [7]): 0.12 µg/mL; FIC (C. albicans B4; [8]): 0.093 |
| C=CCN(C)Cc1ccc(-c2ccc(C(=O)CCCCCCCCO)cc2)cc1 [Compound 40, 4'-[(allylmethylamino)methyl]-4-biphenylyl 8-hydroxyoctyl ketone fumarate] | 17.8 nM |  |  |  |  |  |  |  |  |  |  |  |  |  |  |  |  |  |  |  |  |
| CC(=O)N1CCN(c2ccc(OCC3COC(Cn4ccnc4)(c4ccc(Cl)cc4Cl)O3)cc2)CC1 (centres unmarked) [ketoconazole, reference compound] |  | 5 µg/mL (≈ 9.41 µM) |  |  |  | 0.15 µg/mL (≈ 0.282 µM) |  |  | 2.5 µg/mL (≈ 4.7 µM) |  | 0.15 µg/mL (≈ 0.282 µM) |  |  | 2.5 µg/mL (≈ 4.7 µM) |  |  | 2.5 µg/mL (≈ 4.7 µM) |  | 0.15 µg/mL and 0.075 µg/mL | 0.019 µg/mL and 0.038 µg/mL | MIC alone (C. albicans H12; alone, 37° C., 2 days): 10 µg/mL (≈ 18.8 µM); MIC of sterol biosynthesis inhibitor in combination (C. albicans H29; [9]): 0.019 µg/mL; MIC of sterol biosynthesis inhibitor in combination (C. albicans 3153; [9]): 0.075 µg/mL; MIC alone (C. albicans B5; alone, 37° C., 2 days): 0.3 µg/mL (≈ 0.565 µM); MIC of sterol biosynthesis inhibitor in combination (C. albicans B5; [10]): 0.019 µg/mL and 0.038 µg/mL; MIC of sterol biosynthesis inhibitor in combination (C. albicans B5; [9]): 0.019 µg/mL; MIC alone (C. albicans B4; alone, 37° C., 2 days): 5 µg/mL (≈ 9.41 µM); MIC of sterol biosynthesis inhibitor in combination (C. albicans B4; [10]): 0.075 µg/mL and 0.15 µg/mL; MIC of sterol biosynthesis inhibitor in combination (C. albicans B4; [9]): 0.075 µg/mL |
| CN(C/C=C/C#CC(C)(C)C)Cc1cccc2ccccc12 [terbinafine, reference compound] |  |  |  |  |  |  |  |  |  |  |  |  |  | 100 µg/mL (≈ 343 µM) |  |  |  |  | 0.75 µg/mL | 3.0 µg/mL | MIC of sterol biosynthesis inhibitor in combination (C. albicans H12; [10]): 1.5 µg/mL; MIC of sterol biosynthesis inhibitor in combination (C. albicans H29; [9]): 0.75 µg/mL; MIC of sterol biosynthesis inhibitor in combination (C. albicans 3153; [10]): 3.0 µg/mL and 1.5 µg/mL; MIC of sterol biosynthesis inhibitor in combination (C. albicans 3153; [9]): 1.50 µg/mL; MIC of sterol biosynthesis inhibitor in combination (C. albicans B5; [10]): 3.0 µg/mL; MIC of sterol biosynthesis inhibitor in combination (C. albicans B5; [9]): 0.7 µg/mL; MIC of sterol biosynthesis inhibitor in combination (C. albicans B4; [10]): 3.0 µg/mL; MIC of sterol biosynthesis inhibitor in combination (C. albicans B4; [9]): 1.5 µg/mL |
